From the supplement of paper PMC10307832

Tests used:
Test in all cases: relative viability (nuclei count vs DMSO), 5 days (fraction); higher = more cells survive
NCI-H1792 = system: NCI-H1792
Summary of the method: (§1)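 Relative viability was taken as the ratio of nuclei in treated wells to nuclei in vehicle wells. Lung cancer cell lines in 1536-well plates received compounds by pin tool one day after seeding, either one drug alone or a fixed anchor-drug dose plus five library-drug doses (not always all listed) in √10 steps. Nuclei were counted on 4× images after 5 days of treatment, and values are medians of duplicate plates.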

SW 900 = system: SW 900
Summary of the method: as §1

RERF-LC-KJ = system: RERF-LC-KJ
Summary of the method: as §1

LCLC-103H = system: LCLC-103H
Summary of the method: as §1

NCI-H2347 = system: NCI-H2347
Summary of the method: as §1

NCI-H2170 = system: NCI-H2170
Summary of the method: as §1

LXF-289 = system: LXF-289
Summary of the method: as §1

NCI-H1355 = system: NCI-H1355
Summary of the method: as §1

NCI-H1651 = system: NCI-H1651
Summary of the method: as §1

NCI-H1915 = system: NCI-H1915
Summary of the method: as §1

NCI-H3122 = system: NCI-H3122
Summary of the method: as §1

NCI-H460 = system: NCI-H460
Summary of the method: as §1

NCI-H441 = system: NCI-H441
Summary of the method: as §1

NCI-H650 = system: NCI-H650
Summary of the method: as §1

NCI-H1755 = system: NCI-H1755
Summary of the method: as §1

PC-14 = system: PC-14
Summary of the method: as §1

NCI-H596 = system: NCI-H596
Summary of the method: as §1

NCI-H322M = system: NCI-H322M
Summary of the method: as §1

NCI-H727 = system: NCI-H727
Summary of the method: as §1

Structure (SMILES): CC1(C)CCC(c2ccc(Cl)cc2)=C(CN2CCN(c3ccc(C(=O)NS(=O)(=O)c4ccc(N[C@H](CCN5CCOCC5)CSc5ccccc5)c(S(=O)(=O)C(F)(F)F)c4)cc3)CC2)C1 [Navitoclax] + NC(=O)Nc1cc(-c2cccc(F)c2)sc1C(=O)N[C@H]1CCCNC1 [AZD7762] (partner 0.2 µM)
- relative viability (NCI-H1792; first compound 0.005 µM): 0.593
- relative viability (NCI-H1792; first compound 0.01581 µM): 0.77
- relative viability (NCI-H1792; first compound 0.1581 µM): 0.559
- relative viability (NCI-H1792; first compound 0.5 µM): 0.502
- relative viability (SW 900; first compound 0.005 µM): 0.538
- relative viability (SW 900; first compound 0.01581 µM): 0.651
- relative viability (SW 900; first compound 0.1581 µM): 0.573
- relative viability (SW 900; first compound 0.5 µM): 0.476
- relative viability (RERF-LC-KJ; first compound 0.005 µM): 1
- relative viability (RERF-LC-KJ; first compound 0.01581 µM): 1.08
- relative viability (RERF-LC-KJ; first compound 0.05 µM): 0.824
- relative viability (RERF-LC-KJ; first compound 0.1581 µM): 1.12
- relative viability (RERF-LC-KJ; first compound 0.5 µM): 0.921
- relative viability (LCLC-103H; first compound 0.005 µM): 0.806
- relative viability (LCLC-103H; first compound 0.01581 µM): 0.839
- relative viability (LCLC-103H; first compound 0.05 µM): 0.736
- relative viability (LCLC-103H; first compound 0.1581 µM): 0.826
- relative viability (LCLC-103H; first compound 0.5 µM): 0.8
- relative viability (NCI-H2347; first compound 0.005 µM): 0.809
- relative viability (NCI-H2347; first compound 0.01581 µM): 0.594
- relative viability (NCI-H2347; first compound 0.05 µM): 0.579
- relative viability (NCI-H2347; first compound 0.1581 µM): 0.685
- relative viability (NCI-H2347; first compound 0.5 µM): 0.579
- relative viability (NCI-H2170; first compound 0.005 µM): 0.883
- relative viability (NCI-H2170; first compound 0.01581 µM): 0.912
- relative viability (NCI-H2170; first compound 0.05 µM): 0.845
- relative viability (NCI-H2170; first compound 0.1581 µM): 0.798
- relative viability (NCI-H2170; first compound 0.5 µM): 0.623
- relative viability (LXF-289; first compound 0.005 µM): 1.11
- relative viability (LXF-289; first compound 0.01581 µM): 1.18
- relative viability (LXF-289; first compound 0.05 µM): 0.924
- relative viability (LXF-289; first compound 0.1581 µM): 1.06
- relative viability (LXF-289; first compound 0.5 µM): 1.04
- relative viability (NCI-H1355; first compound 0.005 µM): 0.745
- relative viability (NCI-H1355; first compound 0.01581 µM): 0.728
- relative viability (NCI-H1355; first compound 0.05 µM): 0.588
- relative viability (NCI-H1355; first compound 0.1581 µM): 0.735
- relative viability (NCI-H1355; first compound 0.5 µM): 0.668
- relative viability (NCI-H1651; first compound 0.005 µM): 0.485
- relative viability (NCI-H1651; first compound 0.01581 µM): 0.488
- relative viability (NCI-H1651; first compound 0.05 µM): 0.335
- relative viability (NCI-H1651; first compound 0.1581 µM): 0.474
- relative viability (NCI-H1651; first compound 0.5 µM): 0.466
- relative viability (NCI-H1915; first compound 0.005 µM): 0.726
- relative viability (NCI-H1915; first compound 0.01581 µM): 0.697
- relative viability (NCI-H1915; first compound 0.05 µM): 0.657
- relative viability (NCI-H1915; first compound 0.1581 µM): 0.639
- relative viability (NCI-H1915; first compound 0.5 µM): 0.597
- relative viability (NCI-H3122; first compound 0.005 µM): 0.982
- relative viability (NCI-H3122; first compound 0.01581 µM): 0.971
- relative viability (NCI-H3122; first compound 0.05 µM): 0.895
- relative viability (NCI-H3122; first compound 0.1581 µM): 0.973
- relative viability (NCI-H3122; first compound 0.5 µM): 0.985
- relative viability (NCI-H460; first compound 0.005 µM): 0.575
- relative viability (NCI-H460; first compound 0.01581 µM): 0.622
- relative viability (NCI-H460; first compound 0.05 µM): 0.322
- relative viability (NCI-H460; first compound 0.1581 µM): 0.573
- relative viability (NCI-H460; first compound 0.5 µM): 0.532
- relative viability (NCI-H441; first compound 0.005 µM): 1.12
- relative viability (NCI-H441; first compound 0.01581 µM): 1.19
- relative viability (NCI-H441; first compound 0.05 µM): 1.22
- relative viability (NCI-H441; first compound 0.1581 µM): 1.04
- relative viability (NCI-H441; first compound 0.5 µM): 1.24
- relative viability (NCI-H650; first compound 0.005 µM): 0.946
- relative viability (NCI-H650; first compound 0.01581 µM): 1.12
- relative viability (NCI-H650; first compound 0.05 µM): 1.13
- relative viability (NCI-H650; first compound 0.1581 µM): 0.801
- relative viability (NCI-H650; first compound 0.5 µM): 0.937
- relative viability (NCI-H1755; first compound 0.005 µM): 0.426
- relative viability (NCI-H1755; first compound 0.01581 µM): 0.462
- relative viability (NCI-H1755; first compound 0.05 µM): 0.322
- relative viability (NCI-H1755; first compound 0.1581 µM): 0.439
- relative viability (NCI-H1755; first compound 0.5 µM): 0.474
- relative viability (PC-14; first compound 0.005 µM): 0.326
- relative viability (PC-14; first compound 0.01581 µM): 0.413
- relative viability (PC-14; first compound 0.05 µM): 0.255
- relative viability (PC-14; first compound 0.1581 µM): 0.322
- relative viability (PC-14; first compound 0.5 µM): 0.325
- relative viability (NCI-H596; first compound 0.005 µM): 1.32
- relative viability (NCI-H596; first compound 0.01581 µM): 1.26
- relative viability (NCI-H596; first compound 0.05 µM): 0.919
- relative viability (NCI-H596; first compound 0.1581 µM): 1.05
- relative viability (NCI-H596; first compound 0.5 µM): 1.05
- relative viability (NCI-H322M; first compound 0.005 µM): 0.648
- relative viability (NCI-H322M; first compound 0.01581 µM): 0.626
- relative viability (NCI-H322M; first compound 0.05 µM): 0.511
- relative viability (NCI-H322M; first compound 0.1581 µM): 0.587
- relative viability (NCI-H322M; first compound 0.5 µM): 0.679
- relative viability (NCI-H727; first compound 0.005 µM): 0.656
- relative viability (NCI-H727; first compound 0.01581 µM): 0.595
- relative viability (NCI-H727; first compound 0.05 µM): 0.539
- relative viability (NCI-H727; first compound 0.1581 µM): 0.674
- relative viability (NCI-H727; first compound 0.5 µM): 0.594
